Compound `CCCCCCCCN1CC=C(c2c[nH]c(-c3ccc(F)cc3)c2-c2ccncc2)CC1` had a melting point of 173 to 175 °C.
With `CC(=O)N1OCC(=S)NC1c1ccccc1` (centres undefined), the melting point lay within 172 to 174 °C.
For `CS(=O)(=O)c1nccc(-n2cncn2)n1`, the melting point lay within 135 to 136 °C.
`N#CC=C1OC(=O)c2ccccc21`: the melting point lay within 178 to 180 °C.
`CCCN(CCCc1c[nH]c2c(F)cc(F)cc12)C1COc2c(C(N)=O)ccc(F)c2C1` (centres undefined) had a melting point of 130 °C.
Then `CCCCS(=O)(=O)c1ncn(C(=O)N(CCC)CCC)n1`, with 38.5 to 39.5 °C; and `Cc1ccccc1C(=O)Nc1nc(-c2ccccc2)c(-c2ccc(=O)n(C(C)C)n2)s1`, with 221 to 222 °C.
As for `N#Cc1c(O)nc2ccc(Cl)cc2c1O`, the melting point was 275 to 277 °C.
`O=C(CC(=O)C(CF)CF)c1ccc(OCc2ccccc2)cc1` registered a melting point of 184 to 188 °C.
`O=C(CCN1CCN(c2cccc3[nH]ccc23)CC1)c1csc2ccc(F)cc12` yielded a melting point of 76 to 78 °C.
Then `COC(=O)c1ccc2cc(S)ccc2c1`, with 150 to 151 °C; and `CCS(=O)(=O)Nc1ccc(C(O)CNCC2CCc3ccccc3C2=O)cc1` (centres undefined), with 120 to 122 °C.
The compound `COc1ccc(CN(C)CCOc2ccc(NC(=O)c3cccc4c(=O)c5cccc(OC)c5[nH]c34)c(C)c2)cc1OC` yielded a melting point of 178 to 179 °C.
In the case of `CSc1nn2c(N)cc(C)nc2c1S(=O)(=O)c1ccccc1C`, the melting point is above 250 °C.
`COc1cc(Cl)ccc1C(=O)Nc1ccc(-n2nc(C(F)(F)F)cc2C(F)(F)F)cc1` had a melting point of 178 to 180 °C.
Consider `CC(C)C1CC(=O)C(c2ccccn2)C(=O)C1` (centres undefined), for which the melting point fell in the range of 110 to 112 °C.
As to `Oc1ccc(Nc2nc(Cl)nc(NC3CCCCCC3)n2)cc1Cl`, the melting point is 91 °C.
For `Cc1cc(C)cc(-c2nc(NC(=O)C(C)C)sc2-c2ccncc2)c1`, the melting point is 270 to 272 °C.
The compound `CC(C)(C)C1CC(=O)CC(C(C)(C)C)N1` (centres undefined) returned a melting point of 55.4 °C.
Then `NS(=O)(=O)c1ccc(NC(=O)c2ccccc2S)cc1`, with 230 to 231 °C; and `CN1C(=O)C(NC(=O)Nc2ccccc2)N(C)C1=O` (centres undefined), with 188 to 189 °C.
In turn, `CCOC(=O)CCNC(=O)N1CCn2c(c(C(N)=O)c(Cl)c2-c2ccccc2)C1` yielded a melting point of 50 to 60 °C.
`COC(=O)C1=C(CN2CCN(C)CC2)Nc2ccnc(OC(C)C)c2C1c1ccccc1` (centres undefined) yielded a melting point of 149 to 151 °C.
Compound `Cn1c(CC#N)ccc1C(=O)c1ccccc1` showed a melting point of 106 to 108 °C.
Compound `C[C@H](NC(=O)C[C@](O)(CC(C)(C)O)c1ccccc1)c1ccc(Br)cc1` returned a melting point of 150 to 152 °C.
With `COCCCCCCCCCCCC(N)=O`, the melting point was 83.9 to 85.6 °C.
`CC(C)CC(N)S(=O)(=O)O` (centres undefined) gave a melting point of 142 to 144 °C.
Then `N#Cc1cnc2cc3c(cc2c1Nc1cccc(Br)c1)OCO3`, with 201 to 205 °C; and `COc1cc2c(cc1O)CC1CN(C)Cc3c(O)c(OC)cc-2c31` (centres undefined), with 300 °C.
For `COc1ccc(-c2nc(Cl)c(Oc3ccccc3OC)c(NS(=O)(=O)c3ccc(C(C)(C)C)cc3)n2)cc1`, the melting point fell in the range of 221 to 222 °C.
Take `COc1cn(-c2cccc(C(F)(F)F)c2)nc(C(=O)C=CN(C)C)c1=O`: the melting point is 176 to 178 °C.
Then `COc1cc(OC)nc(Oc2cccc(OC(F)F)c2C(=O)O)n1`, with 113 to 115 °C.
Then `CC(C)(C)OC(=O)N1CCC(Oc2ccc(-c3cn[nH]c(=O)c3)cc2)CC1`, with 222 to 223 °C; and `CCOC(=O)C(=O)Nc1cc(C)ccc1[N+](=O)[O-]`, with 114 °C; and `O=C1C(=O)c2ccccc2C2=C1SCC1(CCN(C(=O)c3ccoc3)CC1)O2`, with 234 to 235 °C.
Then `CCCc1c(OCCCSc2cccc(CC(=O)O)c2F)ccc(C(C)=O)c1O`, with 63 to 65 °C; and `Cc1ccc([N+](=O)[O-])c(C(O)=S)c1`, with 165 to 169 °C; and `CCCN(CCC)c1nc2c(N3CCCCCC3)nc(N3CCOCC3)cc2c(=O)[nH]1`, with 250 °C.
The compound `CN1CCC(O)(C2CC(c3ccc(-c4ccc(N5C[C@H](Cn6ccnn6)OC5=O)cc4F)cn3)=NO2)CC1` (some centres undefined) yielded a melting point of 73 °C.
The compound `COc1cc(C2CCN(C[C@@H](O)CO)CC2)ccc1-c1nc2c(N[C@H]3[C@@H](C(N)=O)[C@@H]4C=C[C@H]3C4)c(Cl)cnc2[nH]1` gave a melting point of 209 to 211 °C.
`O=c1c(Cc2ccccc2)c2n(c(=O)n1Cc1ccccc1)CCCS2` displayed a melting point of 110 to 112 °C.
Then `CS(=O)(=O)Nc1ccccc1SCc1ncon1`, with 106 °C; and `O=C(Nc1ccc(-n2nc(C(F)(F)F)cc2C(F)(F)F)cc1)c1c(F)c(F)cc(F)c1F`, with 235 to 237 °C.
For the compound `CCOCn1c(Cl)c(C#N)c(Cl)c1-c1ccc(Cl)c(Cl)c1`, the melting point lay in the range of 106 to 109 °C.
With `N#Cc1c(Nc2c(F)cccc2F)cccc1Oc1ccccc1`, the melting point was in the range of 150 to 153 °C.
For the compound `C=CCOc1ccc(C(=O)c2ccnn2C)c(Cl)c1Cl`, the melting point lay within 118 to 119 °C.
Take `O=C1C(NCCN2CCCC2)=CC(=O)c2oc(-c3cccc(Br)c3)nc21`: the melting point was 169 to 170 °C.
As for `CN(C)CC(C)(C)CNc1nccc(-c2c(-c3ccc(F)cc3Cl)nc3occn23)n1`, the melting point lay in the range of 124 to 126 °C.
Then `O[C@@H]1[C@H](O)[C@H](O)CO[C@H]1n1c(Br)nc2c(F)c(Cl)c(Cl)cc21`, with 165 °C; and `Cc1cc(SC(C)C)c(NC(=O)CCCCSc2nc3ccccc3s2)c(SC(C)C)n1`, with 107 to 109 °C; and `CCc1c(O)cc(=O)[nH]c1C`, with 360 °C.
Then `CCOC(=O)C(C)(C)Sc1ccc2c(-c3ccccc3F)noc2c1Cl`, with 83.4 °C; and `O=c1nc(-c2cccc(CC(O)=S)n2)sc2ccccc12`, with 258 to 260 °C; and `COc1cc(OC)nc(Oc2ccccc2C(=O)OC(=O)c2ccccc2Oc2nc(OC)cc(OC)n2)n1`, with 120 to 122 °C.
Compound `N#CCNC(=O)c1ncn2c1CN(C(=O)N1CCCC1)c1ccccc1-2` came in with a melting point of 241 to 242 °C.
Turning to `CCCS(=O)(=O)N[C@H](C(=O)NCCc1ccc(OCC#Cc2ccc(Cl)cc2)c(OC)c1)C(C)C`, the melting point fell in the range of 131 to 133 °C.
On to `CCOC(=O)c1ccccc1C(=O)c1ccc2c(c1)C(C)(C)C(C)C2(C)C` (centres undefined), for which the melting point was 56 to 57 °C.
In turn, `CCOC(C)=C1SC(=S)N(c2ccc(Cl)cc2)C1=O` registered a melting point of 168 to 171 °C.
For `COC(=O)c1ccc(COC2CC(n3cc(F)c(=O)[nH]c3=O)OC2CO)cc1` (centres undefined), the melting point fell in the range of 169 to 170 °C.
`COc1cc2oc(=O)c3c(c2cc1N)CCN(CC(C)=O)C3` showed a melting point of 178 to 180 °C.
`O=C(O)Cn1cccc(OCc2ccccc2)c1=O` displayed a melting point of 176 to 177 °C.
As to `Cc1cccc(C(C)(C)C)c1NC(=O)NCC1(c2ccccc2)CCCCC1`, the melting point fell in the range of 196 to 197 °C.
As for `c1cc2c(c(NC3=NCCO3)c1)CCCC2`, the melting point was 101 to 103 °C.
Regarding `Cc1cn(Cc2cccc(Cl)c2)cc1C(=O)CC(=O)C(=O)O`, the melting point lay in the range of 148 to 149 °C.
Turning to `CCOC(=O)CCc1n[nH]c(SCc2ccc(OCc3nc(-c4ccccc4)oc3C)cc2)n1`, the melting point is 114 to 115 °C.
Compound `COc1ccc2c(c1)c(CC(O)(P(=O)(O)O)P(=O)(O)O)c(C)n2C(=O)c1ccc(Cl)cc1` returned a melting point of 202 °C.
Regarding `COc1ccc(C(=O)Oc2ccc(C(=O)O)c(C)c2)cc1C12CC3CC(CC(C3)C1)C2`, the melting point was 236 to 237 °C.
Consider `c1ccc(OCc2nnn[nH]2)cc1`, for which the melting point lay within 128 to 131 °C.
In turn, `NC(=O)Cc1nc(-c2ccccc2)c(-c2ccccc2)o1` registered a melting point of 129 to 133 °C.
For the compound `Oc1nc(C2CC2)nc2c1SCCC2`, the melting point lay within 249 to 250 °C.
`COc1ccc(NS(=O)(=O)c2ccc(NC3=C(Cl)C(=O)c4ccccc4C3=O)cc2OC)cc1` registered a melting point of 165 to 167 °C.
The compound `Cc1nnsc1C(=O)Nc1ccc(-n2nc(C(F)(F)F)cc2C2CC2)c(F)c1` showed a melting point of 105 to 112 °C.
`CC(C)C(C(=O)O)N1CC(N)C1=O` (centres undefined) returned a melting point of 178 to 183 °C.
Then `CCCCCCCCCCCCCCCCCCOc1ccc(O)c(C(=O)N(CC(=O)O)CC(=O)O)c1`, with 128 to 132 °C; and `CC(=O)N(C(C)=O)c1ccccc1Cn1[nH]c2ccccc2c1=O`, with 114 to 115 °C.
As to `COc1cc(OC)cc(-c2nc(C)nn2-c2ccc(S(N)(=O)=O)cc2)c1`, the melting point is 207 to 208 °C.
Then `Cc1ccc(Br)cc1NS(=O)(=O)c1ccccc1C(=O)O`, with 274 to 276 °C.
`NC(=O)CC(CC(N)=O)c1cccc(OCc2ccccc2)c1` returned a melting point of 205 to 207 °C.
For the compound `COc1cc2c(cc1OC)CN(Cc1ccc(OC(=O)N(C)C)c(OC)c1)CC2`, the melting point was 126 to 128 °C.
Then `ON=C1CCc2c1sc1c2CCCC1`, with 174 to 176 °C; and `Cc1nnc(-c2ccc3c(c2)c2cc(-c4ccc(Cl)cc4Cl)c(=O)n(C)c2n3C)o1`, with 311 to 316 °C; and `CN1CCc2c(c3ccccc3n2CCc2n[nH]c(=S)n2C)C1`, with 216 to 219 °C.
In the case of `COc1ccc(N2CCOCC2)c2sc(-c3nc(-c4ccc5c(c4)OCCO5)c[nH]3)nc12`, the melting point is 235 to 237 °C.
`C=Cc1cn(-c2c(Cl)cc(C(F)(F)F)cc2Cl)nn1` displayed a melting point of 109 to 111 °C.
Take `CCc1nc(/C=C\c2cn(-c3ccccc3)nc2OCc2ccc(OCc3nc(N4CCOCC4)sc3C)c(OC)c2)cs1`: the melting point fell in the range of 76 to 78 °C.
Regarding `CCOC(=O)c1cncc(C(=O)NC(C)c2ccccc2)c1` (centres undefined), the melting point was 159 to 161 °C.
`OC/C=C/C=C(c1ccccc1)c1ccccc1`: the melting point lay in the range of 71 to 72 °C.
Compound `CC(=O)CCCCC(=O)Nc1ccc(C=CC(=O)O)cc1` came in with a melting point of 222 to 225 °C.
`CN(C(=O)CN1C(=O)C(NC(=O)Nc2cccc(C#N)c2)N=C(CN2CCSCC2)c2ccccc21)c1ccccc1` (centres undefined): the melting point turned out to be 165 °C.

Values taken from a melting point compilation (Tetko et al.; mined from patent text by program, amines drawn as free bases though some values may be those of a salt).
